From US8703785B2, “2-aminopyrimidin-4-one and 2-aminopyridine derivatives both having BACE1-inhibiting activity” (Shionogi & Co., Ltd., priority 2008, dated 2014) come the findings set out here.

SMILES strings stand for the structures.

For orientation: IC50 means the concentration that gives 50% inhibition.

One series deals with hERG (IKr) (Homo sapiens (Human), UniProt Q12809). Put plainly: hERG test. As to conditions: HEK293 cells expressing hERG channel, pH 7.4, HEK293 cell expressing hERG, compound concentration 5 μM, read-out: inhibitory percentage (IKr maximum tail current). The class given is cell-based. From the text: For the purpose of risk assessment for QT prolongation on an electrocardiogram, the action on delayed rectifier K+ current (IKr) which plays an important role on a process of ventricular repolarization was studied using a HEK293 cell with a human ether-a-go-go related gene (hERG) channel expressed therein. A cell was maintained at a membrane potential of −80 mV, and then +40 mV of a depolarizing stimulus was applied to the cell for 2 seconds and further −50 mV of a repolarizing stimulus was applied thereto for 2 seconds by a whole-cell patch clamp technique with a fully-automatic patch clamp system (PatchXpress 7000A, Axon Instruments Inc.), and the induced IKr was recorded. […] The absolute value of the maximum tail current was determined from the obtained IKr with an analysis software (DataXpress ver. 1, Molecular Devices Corporation) based on a current value at a maintained membrane potential. Further, an inhibitory percentage relative to the maximum tail current before application of the test compound was calculated, and influence of the test compound on IKr was evaluated in comparison with the medium application group (0.1% dimethyl sulfoxide solution). […]
Chain of hERG (IKr) (Q12809 whole entry): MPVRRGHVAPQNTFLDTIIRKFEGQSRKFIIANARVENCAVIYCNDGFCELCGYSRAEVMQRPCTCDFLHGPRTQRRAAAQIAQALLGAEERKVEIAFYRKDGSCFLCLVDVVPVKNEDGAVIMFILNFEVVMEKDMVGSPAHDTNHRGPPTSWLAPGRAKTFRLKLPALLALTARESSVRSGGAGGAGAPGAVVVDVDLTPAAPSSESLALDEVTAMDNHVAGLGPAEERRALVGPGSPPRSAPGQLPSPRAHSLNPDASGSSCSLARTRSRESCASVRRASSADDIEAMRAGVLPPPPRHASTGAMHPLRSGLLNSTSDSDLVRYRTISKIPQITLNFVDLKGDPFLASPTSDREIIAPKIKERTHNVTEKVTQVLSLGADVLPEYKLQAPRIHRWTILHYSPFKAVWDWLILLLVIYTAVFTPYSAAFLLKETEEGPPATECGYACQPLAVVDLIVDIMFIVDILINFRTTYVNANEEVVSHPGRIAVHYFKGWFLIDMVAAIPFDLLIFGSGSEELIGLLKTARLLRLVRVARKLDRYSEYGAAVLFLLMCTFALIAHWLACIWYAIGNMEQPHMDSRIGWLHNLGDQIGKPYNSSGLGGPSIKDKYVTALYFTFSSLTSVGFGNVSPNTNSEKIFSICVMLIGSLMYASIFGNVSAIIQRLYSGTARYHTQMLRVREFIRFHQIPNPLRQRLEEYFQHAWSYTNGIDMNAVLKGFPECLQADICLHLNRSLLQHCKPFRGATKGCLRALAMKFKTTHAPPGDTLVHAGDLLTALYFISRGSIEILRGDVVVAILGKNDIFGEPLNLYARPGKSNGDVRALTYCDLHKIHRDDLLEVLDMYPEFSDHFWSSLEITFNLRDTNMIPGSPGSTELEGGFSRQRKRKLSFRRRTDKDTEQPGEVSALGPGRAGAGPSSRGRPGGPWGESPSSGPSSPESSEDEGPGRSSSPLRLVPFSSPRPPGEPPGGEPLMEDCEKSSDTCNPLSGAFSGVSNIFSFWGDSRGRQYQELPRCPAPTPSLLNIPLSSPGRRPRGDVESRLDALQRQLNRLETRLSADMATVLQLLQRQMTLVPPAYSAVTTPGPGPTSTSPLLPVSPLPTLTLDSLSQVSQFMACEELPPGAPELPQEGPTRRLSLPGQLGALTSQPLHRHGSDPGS

The target of another series is CYP3A4 (Homo sapiens (Human), UniProt P08684). Kind of series: CYP3A4 fluorescent MBI test. Type of series: in vitro ADME. The conditions noted are these: E. coli-expressing CYP3A4, 7-BFC substrate, pre-reaction 0 or 30 minutes. The procedure: The CYP3A4 fluorescent MBI test is a test to examine enhancement of CYP3A4 inhibition by metabolic reaction of the compound. Here, E. coli-expressing CYP3A4 was used as an enzyme, and a reaction wherein 7-benzyloxy trifluoromethylcumarin (7-BFC) was debenzylated by the CYP3A4 enzyme into a fluorescent metabolite 7-hydroxytrifluoromethylcumarin (HFC) was employed as an indicator reaction. The reaction conditions were as follows.
Chain of CYP3A4 (P08684 whole entry): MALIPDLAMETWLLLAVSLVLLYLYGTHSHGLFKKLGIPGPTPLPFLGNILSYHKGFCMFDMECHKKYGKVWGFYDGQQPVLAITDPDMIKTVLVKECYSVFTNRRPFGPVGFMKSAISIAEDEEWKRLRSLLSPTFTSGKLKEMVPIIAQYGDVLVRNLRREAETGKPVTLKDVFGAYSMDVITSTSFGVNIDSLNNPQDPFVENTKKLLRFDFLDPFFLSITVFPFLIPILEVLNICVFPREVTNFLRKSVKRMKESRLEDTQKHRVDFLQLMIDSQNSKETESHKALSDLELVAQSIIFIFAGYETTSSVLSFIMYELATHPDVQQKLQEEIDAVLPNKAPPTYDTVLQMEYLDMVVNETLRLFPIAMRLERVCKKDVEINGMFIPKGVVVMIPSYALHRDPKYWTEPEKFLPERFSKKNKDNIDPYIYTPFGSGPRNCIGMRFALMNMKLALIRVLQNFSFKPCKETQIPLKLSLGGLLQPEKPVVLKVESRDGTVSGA
Substrate: 5.6 μmol/L 7-BFC
Pre-reaction time: 0 or 30 minutes
Reaction time: 15 minutes
Reaction temperature: 25° C. (room temperature)
CYP3A4 content (E. coli-expressing enzyme): 62.5 pmol/mL at pre-reaction, […] at reaction (10-fold diluted) […]
The enzyme and a test compound solution were added to a K-Pi buffer (pH 7.4) in the aforementioned amounts for the pre-reaction so that a pre-reaction solution was prepared, and this solution was put into a 96-well microplate. […] With respect to each of the microplates on which the indicator reaction was performed, the fluorescence value of the metabolite 7-HFC was measured with a fluorescence plate reader (Ex=420 nm, Em=535 nm). […] The remaining activity (%) at each concentration after adding the test compound solution was calculated, and the IC50 value was calculated from the concentration and inhibition percentage by inverse estimation with the logistic model. […]

Another series deals with Recombinant human BACE-1 (Homo sapiens (Human), UniProt P56817). Put plainly: Measurement of BACE1 inhibitory activity. The class given is biochemical. The conditions noted are these: Recombinant human BACE-1 7.4 nM, substrate peptide 18 nM, pH 5.0, 3 hours at 30° C.; read-out: IC50 (BACE1 enzyme activity). Here is the method:
First, 48.5 μl portions of a solution of substrate peptide (Biotin-XSEVNLDAEFRHDSGC-Eu: X=ε-amino-n-capronic acid, Eu=Europium cryptate) were put into respective wells of a 96-well half area microplate (black microplate, Costar). Then, 0.5 μl of a test compound (DMSO (dimethyl sulfoxide) solution) and 1 μl of Recombinant human BACE-1 (R&D systems) were added to each of the wells, and they were reacted for 3 hours at 30° C. […] The final concentration of the substrate peptide was set to 18 nM, and the final concentration of Recombinant human BACE-1 was set to 7.4 nM. The reaction buffer used was a sodium acetate buffer (50 mM sodium acetate, pH 5.0, 0.008% Triton X-100). After the reaction finished, 50 μl portions of a 8.0 μg/ml solution of Streptavidin-XL665 (CIS bio international) in a phosphate buffer (150 mM K2HPO4—KH2PO4, pH 7.0, 0.008% Triton X-100, 0.8 M KF) were added to the respective wells, and the plate was left standing for 1 hour at 30° C. Thereafter, the fluorescence intensity (excitation wavelength: 320 nm, measurement wavelength: 620 nm and 665 nm) was measured with a Wallac 1420 multilabel counter (Perkin Elmer life sciences). The enzyme activity was determined from the count rate at each measurement wavelength (10000× Count 665/Count 620), and the amount needed to inhibit the enzyme activity by 50% (IC50) was calculated.

In series [1] the test system is Neuroblastoma SH-SY5Y cells (SH/APPwt) with human wild-type β-APP excessively expressed. Kind of series: Measurement of β-amyloid (Aβ) production inhibitory effect in cell. Type of series: cell-based. The conditions noted are these: 24 hours incubation, Amyloid-β 1-40 HTRF. The procedure:
Neuroblastoma SH-SY5Y cells (SH/APPwt) with human wild-type β-APP excessively expressed therein were prepared at 8×10^5 cells/mL, and 150 μl portions thereof were inoculated into respective wells of a 96-well culture plate (Falcon). The cells were cultured for 2 hours at 37° C. in a 5% gaseous carbon dioxide incubator. […] Namely, the final DMSO concentration was 1%, and the amount of the cell culture was 200 μl. After the incubation was performed for 24 hours from the addition of the test compound, 100 μl of the culture supernatant was collected from each fraction. The amount of the Aβ in each fraction was measured. The Aβ amount was measured as follows. 10 μl of a homogeneous time resolved fluorescence (HTRF) measurement reagent (Amyloid-β 1-40 peptide; IBA Molecular Holding, S.A.) and 10 μl of the culture supernatant were put into a 384-well half area microplate (black microplate, Costar) and mixed with each other, and then left standing overnight at 4° C. while the light was shielded. Then, the fluorescence intensity (excitation wavelength: 337 nm, measurement wavelength: 620 nm and 665 nm) was measured with a Wallac 1420 multilabel counter (Perkin Elmer life sciences).
Background: Time-resolved FRET reads energy transfer from a long-lived donor to a nearby acceptor.

Chain of Recombinant human BACE-1 (P56817 46-501): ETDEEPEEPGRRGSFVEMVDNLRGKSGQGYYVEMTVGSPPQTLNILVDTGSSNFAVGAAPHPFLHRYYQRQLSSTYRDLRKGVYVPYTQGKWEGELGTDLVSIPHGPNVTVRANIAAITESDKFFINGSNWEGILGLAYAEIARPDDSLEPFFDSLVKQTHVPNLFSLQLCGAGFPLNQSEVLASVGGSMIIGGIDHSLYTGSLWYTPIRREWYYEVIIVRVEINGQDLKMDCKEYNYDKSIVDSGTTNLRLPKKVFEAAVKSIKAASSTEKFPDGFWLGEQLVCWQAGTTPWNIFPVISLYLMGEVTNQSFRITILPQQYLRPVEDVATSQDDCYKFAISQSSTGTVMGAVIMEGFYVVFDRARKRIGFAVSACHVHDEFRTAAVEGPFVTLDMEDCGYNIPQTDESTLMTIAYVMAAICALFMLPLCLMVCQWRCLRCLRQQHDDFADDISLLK

Regarding `COCCOc1cnc(C(=O)Nc2cccc(C3(C)CC(=O)N(C)C(N)=N3)c2)cn1` (stereo not shown) [Compound 40], at hERG (IKr), the inhibition at 10 min, 5 µM is 4.1%. The molecule further gave an IC50 difference without vs with pre-reaction against CYP3A4 not above 3000 nM. The results for the IC50 (on Recombinant human BACE-1; in series [1]) were 14 nM and 0.9 nM, respectively.
